# According to patent US3992371A, “Penicillins substituted with heterocyclic and substituted phenyl groups” (Sumitomo Chemical Company, Limited, priority 1973, dated 1976):
# Counter-ions that a name gives are not always drawn.
# Legend:
# Experiment in all cases: Minimal inhibitory concentration, agar dilution method
# Format in all cases: cell-based
# [1] = system: Klebsiella pneumoniae PCI602
# Description: (§1) When determined according to the agar dilution method, the penicillins (I) afford the minimal inhibitory concentrations against test microorganisms as shown in Table 2.
# Escherichia coli NIHJ = system: Escherichia coli NIHJ
# Description: as §1
# [2] = system: Pseudomonas aeruginosa 104
# Description: as §1
# [3] = system: Staphylococcus aureus 209P
# Description: as §1
# Proteus miravilis GN2425 = system: Proteus miravilis GN2425
# Proteus vulgaris HV19 = system: Proteus vulgaris HV19
MIC [1],MIC (Escherichia coli NIHJ),MIC [2],MIC [3],MIC (Proteus miravilis GN2425),MIC (Proteus vulgaris HV19),SMILES
200 µg/mL,,,,,,"CC1(C)S[C@@H]2[C@H](NC(=O)C(C(=O)O)c3ccccc3)C(=O)N2[C@H]1C(=O)O (stereo partly drawn) [Carbenicillin, reference compound]"
6.25 µg/mL,0.78 µg/mL,1.56 µg/mL,1.56 µg/mL,0.78 µg/mL,0.025 µg/mL,"CC1(C)S[C@@H]2[C@H](NC(=O)[C@H](NC(=O)c3cnc4cccnc4c3O)c3cccc(N)c3)C(=O)N2[C@H]1C(=O)O [Example 1, D-α-(4-hydroxy-1,5-naphthyridine-3-carboxamido)-m-aminobenzylpenicillin sodium salt]"
12.5 µg/mL,0.78 µg/mL,1.56 µg/mL,1.56 µg/mL,1.56 µg/mL,0.025 µg/mL,"CC1(C)S[C@@H]2[C@H](NC(=O)[C@H](NC(=O)c3cnc4cccnc4c3O)c3ccc(N)cc3)C(=O)N2[C@H]1C(=O)O [Example 2, D-α-(4-hydroxy-1,5-naphthyridine-3-carboxamido)-p-aminobenzylpenicillin sodium salt]"
12.5 µg/mL,3.13 µg/mL,3.13 µg/mL,1.56 µg/mL,6.25 µg/mL,0.1 µg/mL,"CCOC(=O)Oc1c(C(=O)N[C@@H](C(=O)N[C@@H]2C(=O)N3[C@@H]2SC(C)(C)[C@@H]3C(=O)O)c2ccc(OC)cc2)cnc2cccnc12 [Example 3, D-α-(4-ethoxycarbonyloxy-1,5-naphthyridine-3-carboxamido)-p-methoxybenzylpenicillin]"
12.5 µg/mL,3.13 µg/mL,3.13 µg/mL,1.56 µg/mL,12.5 µg/mL,0.1 µg/mL,"COc1ccc([C@@H](NC(=O)c2cnc3cccnc3c2O)C(=O)N[C@@H]2C(=O)N3[C@@H]2SC(C)(C)[C@@H]3C(=O)O)cc1 [Example 4, D-α-(4-hydroxy-1,5-naphthyridine-3-carboxamido)-p-methoxybenzylpenicillin sodium salt]"
6.25 µg/mL,3.13 µg/mL,1.56 µg/mL,1.56 µg/mL,6.25 µg/mL,0.1 µg/mL,"CN(C)c1ccc([C@@H](NC(=O)c2cnc3cccnc3c2O)C(=O)N[C@@H]2C(=O)N3[C@@H]2SC(C)(C)[C@@H]3C(=O)O)cc1 [Example 5, D-α-(4-hydroxy-1,5-naphthyridine-3-carboxamido)-p-dimethylaminobenzylpenicillin sodium salt]"
12.5 µg/mL,6.25 µg/mL,6.25 µg/mL,1.56 µg/mL,12.5 µg/mL,0.78 µg/mL,"CC1(C)S[C@@H]2[C@H](NC(=O)[C@H](NC(=O)c3nnc4ccccc4c3O)c3cccc(N)c3)C(=O)N2[C@H]1C(=O)O [Example 6, D-α-(4-hydroxycinnoline-3-carboxamido)-m-aminobenzylpenicillin]"
6.25 µg/mL,3.13 µg/mL,6.25 µg/mL,0.78 µg/mL,6.25 µg/mL,0.2 µg/mL,"CC(=O)Nc1cccc([C@@H](NC(=O)c2cnc3ccccc3c2OC(=O)C(C)(C)C)C(=O)N[C@@H]2C(=O)N3[C@@H]2SC(C)(C)[C@@H]3C(=O)O)c1 [Example 7, D-α-(4-pivaloyloxyquinoline-3-carboxamido)-m-acetylaminobenzylpenicillin]"
12.5 µg/mL,0.78 µg/mL,1.56 µg/mL,1.56 µg/mL,0.78 µg/mL,0.05 µg/mL,CCNc1ccc(C(NC(=O)c2cnc3cccnc3c2O)C(=O)N[C@@H]2C(=O)N3[C@@H]2SC(C)(C)[C@@H]3C(=O)O)cc1 (stereo partly drawn) [Example 10]
12.5 µg/mL,1.56 µg/mL,3.13 µg/mL,1.56 µg/mL,1.56 µg/mL,0.05 µg/mL,CC1(C)S[C@@H]2[C@H](NC(=O)C(NC(=O)c3cnc4cccnc4c3O)c3cccc(I)c3)C(=O)N2[C@H]1C(=O)O (stereo partly drawn) [Example 11]
12.5 µg/mL,1.56 µg/mL,3.13 µg/mL,1.56 µg/mL,1.56 µg/mL,0.05 µg/mL,CCOC(=O)Oc1c(C(=O)NC(C(=O)N[C@@H]2C(=O)N3[C@@H]2SC(C)(C)[C@@H]3C(=O)O)c2cccc(Cl)c2)cnc2cccnc12 (stereo partly drawn) [Example 12]
6.25 µg/mL,0.78 µg/mL,1.56 µg/mL,1.56 µg/mL,1.56 µg/mL,0.05 µg/mL,Cc1ccc(C(NC(=O)c2cnc3cccnc3c2O)C(=O)N[C@@H]2C(=O)N3[C@@H]2SC(C)(C)[C@@H]3C(=O)O)cc1 (stereo partly drawn) [Example 13]
12.5 µg/mL,3.13 µg/mL,0.78 µg/mL,0.78 µg/mL,12.5 µg/mL,0.78 µg/mL,CC1(C)S[C@@H]2[C@H](NC(=O)C(NC(=O)c3nc4ccccc4nc3O)c3cccc(N)c3)C(=O)N2[C@H]1C(=O)O (stereo partly drawn) [Example 14]
6.25 µg/mL,3.13 µg/mL,3.13 µg/mL,0.78 µg/mL,3.13 µg/mL,0.2 µg/mL,CC1(C)S[C@@H]2[C@H](NC(=O)C(NC(=O)c3cnc4ccccc4c3O)c3cccc(N)c3)C(=O)N2[C@H]1C(=O)O (stereo partly drawn) [Example 15]
,6.25 µg/mL,3.13 µg/mL,0.78 µg/mL,3.13 µg/mL,0.39 µg/mL,Cc1ccc2c(O)c(C(=O)NC(C(=O)N[C@@H]3C(=O)N4[C@@H]3SC(C)(C)[C@@H]4C(=O)O)c3cccc(N)c3)cnc2c1 (stereo partly drawn) [Example 16]
6.25 µg/mL,3.13 µg/mL,3.13 µg/mL,0.78 µg/mL,3.13 µg/mL,0.2 µg/mL,CC1(C)S[C@@H]2[C@H](NC(=O)C(NC(=O)c3cnc4cc(Cl)ccc4c3O)c3ccc(N)cc3)C(=O)N2[C@H]1C(=O)O (stereo partly drawn) [Example 17]

MIC [1],MIC (Escherichia coli NIHJ),MIC [2],MIC [3],MIC (Proteus miravilis GN2425),MIC (Proteus vulgaris HV19),SMILES
6.25 µg/mL,1.56 µg/mL,1.56 µg/mL,1.56 µg/mL,1.56 µg/mL,0.025 µg/mL,Cc1ccc2c(O)c(C(=O)NC(C(=O)N[C@@H]3C(=O)N4[C@@H]3SC(C)(C)[C@@H]4C(=O)O)c3cccc(N)c3)cnc2n1 (stereo partly drawn) [Example 18]
6.25 µg/mL,0.78 µg/mL,0.78 µg/mL,1.56 µg/mL,0.78 µg/mL,0.025 µg/mL,Cc1ccc2ncc(C(=O)NC(C(=O)N[C@@H]3C(=O)N4[C@@H]3SC(C)(C)[C@@H]4C(=O)O)c3cccc(N)c3)c(O)c2n1 (stereo partly drawn) [Example 19]
6.25 µg/mL,3.13 µg/mL,3.13 µg/mL,0.78 µg/mL,3.13 µg/mL,0.1 µg/mL,COc1ccc2c(O)c(C(=O)NC(C(=O)N[C@@H]3C(=O)N4[C@@H]3SC(C)(C)[C@@H]4C(=O)O)c3cccc(N)c3)cnc2c1 (stereo partly drawn) [Example 20]
3.13 µg/mL,0.78 µg/mL,0.78 µg/mL,1.56 µg/mL,1.56 µg/mL,0.025 µg/mL,Cc1ccc2ncc(C(=O)NC(C(=O)N[C@@H]3C(=O)N4[C@@H]3SC(C)(C)[C@@H]4C(=O)O)c3ccc(N)cc3)c(O)c2n1 (stereo partly drawn) [Example 21]
3.13 µg/mL,0.78 µg/mL,0.78 µg/mL,1.56 µg/mL,0.78 µg/mL,0.025 µg/mL,CN(C)c1ccc2ncc(C(=O)NC(C(=O)N[C@@H]3C(=O)N4[C@@H]3SC(C)(C)[C@@H]4C(=O)O)c3cccc(N)c3)c(O)c2n1 (stereo partly drawn) [Example 22]
6.25 µg/mL,0.78 µg/mL,1.56 µg/mL,1.56 µg/mL,1.56 µg/mL,0.05 µg/mL,COc1ccc2ncc(C(=O)NC(C(=O)N[C@@H]3C(=O)N4[C@@H]3SC(C)(C)[C@@H]4C(=O)O)c3cccc(N)c3)c(O)c2n1 (stereo partly drawn) [Example 23]
6.25 µg/mL,0.78 µg/mL,1.56 µg/mL,1.56 µg/mL,0.78 µg/mL,0.025 µg/mL,CSc1ccc2ncc(C(=O)NC(C(=O)N[C@@H]3C(=O)N4[C@@H]3SC(C)(C)[C@@H]4C(=O)O)c3ccc(N)cc3)c(O)c2n1 (stereo partly drawn) [Example 24]
12.5 µg/mL,3.13 µg/mL,3.13 µg/mL,0.78 µg/mL,3.13 µg/mL,0.2 µg/mL,CC1(C)S[C@@H]2[C@H](NC(=O)C(NC(=O)c3cnc4cc([N+](=O)[O-])ccc4c3O)c3cccc(N)c3)C(=O)N2[C@H]1C(=O)O (stereo partly drawn) [Example 25]
6.25 µg/mL,0.78 µg/mL,0.78 µg/mL,1.56 µg/mL,0.78 µg/mL,0.025 µg/mL,CC(=O)Nc1ccc2ncc(C(=O)NC(C(=O)N[C@@H]3C(=O)N4[C@@H]3SC(C)(C)[C@@H]4C(=O)O)c3cccc(N)c3)c(O)c2n1 (stereo partly drawn) [Example 26]
12.5 µg/mL,3.13 µg/mL,3.13 µg/mL,0.78 µg/mL,3.13 µg/mL,0.39 µg/mL,CC1(C)S[C@@H]2[C@H](NC(=O)C(NC(=O)c3cnc4cc(N)ccc4c3O)c3cccc(N)c3)C(=O)N2[C@H]1C(=O)O (stereo partly drawn) [Example 27]
6.25 µg/mL,0.78 µg/mL,0.78 µg/mL,1.56 µg/mL,0.78 µg/mL,0.025 µg/mL,CC1(C)SC2C(NC(=O)C(NC(=O)c3cnc4ccc(N)nc4c3O)c3cccc(N)c3)C(=O)N2C1C(=O)O (stereo not drawn) [Example 29]
6.25 µg/mL,0.78 µg/mL,1.56 µg/mL,1.56 µg/mL,1.56 µg/mL,0.05 µg/mL,CC1(C)S[C@@H]2[C@H](NC(=O)C(NC(=O)c3cnc4ccc(O)nc4c3O)c3cccc(N)c3)C(=O)N2[C@H]1C(=O)O (stereo partly drawn) [Example 30]
12.5 µg/mL,3.13 µg/mL,3.13 µg/mL,0.78 µg/mL,3.13 µg/mL,0.39 µg/mL,CC1(C)S[C@@H]2[C@H](NC(=O)C(NC(=O)c3cc4ccccc4nc3O)c3cccc(N)c3)C(=O)N2[C@H]1C(=O)O (stereo partly drawn) [Example 31]
12.5 µg/mL,3.13 µg/mL,3.13 µg/mL,1.56 µg/mL,3.13 µg/mL,0.05 µg/mL,COc1nc(OC)c2c(O)c(C(=O)NC(C(=O)NC3C(=O)N4C3SC(C)(C)C4C(=O)O)c3ccc(N)cc3)cnc2n1 (stereo not drawn) [Example 32]
6.25 µg/mL,0.78 µg/mL,0.78 µg/mL,1.56 µg/mL,0.78 µg/mL,0.025 µg/mL,CC1(C)SC2C(NC(=O)C(NC(=O)c3cnc4cncnc4c3O)c3cccc(N)c3)C(=O)N2C1C(=O)O (stereo not drawn) [Example 33]
